Measurements published in patent publication US12227492B1, “Pyrimidine nucleosides as anticancer agents against pancreatic cancer” (Florida A&M University, priority 2021, dated 2025).
Where a name gives a salt, the structure may show the parent alone. Read-outs that look alike come from different tables or passages of the source.

Assays:
Log P = format: physicochemical
[1] = tested on: MiaPaCa-2 pancreatic cancer cell line; test: In vitro cell viability studies (resazurin/Alamar Blue); format: cell-based; conditions: for IC50: Homo sapiens, MIA PaCa-2, MiaPaCa-2, 48 hr incubation
Protocol: Prior to viability studies, Dulbecco's modified Eagle medium (DMEM) with high glucose and L-glutamine was supplemented with 10% fetal bovine serum (FBS) and 1% penicillin-streptomycin (PenStrep). Briefly, MiaPaCa-2 cells were seeded at a density of 1×10^3 per well in 96-well plates in triplicates for each drug concentration level and incubated at 5% CO2 and temperature of 37° C. At 70-75% confluence, MiaPaCa-2 cells were treated with compounds XYZ-I-71, XYZ-I-73, 5-Fluorouracil (5-FU), Gemcitabine (Gem) and Irinotecan. Varying concentrations of 4NSG was prepared from its stock solution with growth medium. For 5-Fluorouracil (5-FU), Gemcitabine Hydrochloride (GemHCl) and Irinotecan, a stock solution was prepared with phosphate-buffered saline (PBS) and serially diluted with growth medium to prepare varied concentrations: thus 3, 6, 12, 25, and 100 μM. Cells was treated with 100 μL of each drug concentration in triplicates and incubated for 48 hr. At termination, 20 μL of 0.05% resazurin sodium salt (Alamar Blue®) was added and incubated at optimum conditions (5% CO2, 37° C.) for 4 hr. Fluorimetric analysis was determined at excitation wavelength of 560/580 nm and emission wavelength of 590/610 nm and the percent viable cells per concentration was calculated. For statistical analysis, results are presented as mean±SD. Data were analyzed for significance by one-way ANOVA, using GraphPad Prism 5 Software and IC50 values were determined.

MiaPaCa-2 cells = test: In vitro cell migration (wound) assay; format: cell-based; conditions: 2, 5 and 10 μM, after 48 h, compared with 5-FU, GemHCl
Protocol: A uniform scratch was made in 90% confluent monolayer culture of MiaPaCa-2 cells and the extent of closure was monitored under microscope and photographed. […] Migrated cells within the scratch were quantified and the distance of migration measured using NIH ImageJ software. […] Over the same incubation time, the cells in the control group (48 h) migrated farther achieving a complete or near closure of the wounds. The results are expressed as the means (±SEM, N=4) relative to the control.
Cell migration assay was conducted to determine the effect of on 5-FU, GemHCl, XYZ-I-71 and XYZ-I-73 MiaPaCa-2 cell motility. Ibidi cell culture inserts were used to generate two confluent monolayers of cells separated by a “wound” for this assay. The cells were seeded in 24-well plates at a cell density of 2.5×10^5, for 24 h at 37° C. At 75% confluency, cells formed adherent monolayers on either side of the tissue culture insert. Prior to treatment, the cells were serum-starved by replacing complete media with base media (DMEM) and then further incubated for 24 hours. After serum starving, the insert was gently removed to generate a gap or “wound’ between the two confluent layers of cells. The monolayers were washed with experimental media and afterwards cells were exposed to varying concentrations of 5-FU, GemHCl, XYZ-I-71 and XYZ-I-73 (1, 2, 5 and 10 μM). […]

[2] = mean ± SD, read-out: IC50 (μM) against MiaPaCa-2 cell line as determined by cell viability studies
[3] = read-out: IC50 values, cytotoxic activity against MiaPaCa-2 cancer line

Row | SMILES | logP (Log P) | IC50 [1, 2] | IC50 [1, 3] | cytotoxic activity against MiaPaCa-2, XYZ-I-73 versus XYZ-I-71 ([1]; MiaPaCa-2, FIG. 7) | efficacy against MiaPaCa-2 cancer line compared with 5-FU (IC50 data) ([1]; MiaPaCa-2) | number of migrated cells towards the wound (MiaPaCa-2 cells)
1 | Nc1ccn([C@@H]2O[C@H](CO)[C@@H](O)C2(F)F)c(=O)n1 [GemHCl, Gemcitabine Hydrochloride, reference compound] | – | 25.3 ± 1.3 µM | – | – | – | –
2 | CCc1c2c(nc3ccc(OC(=O)N4CCC(N5CCCCC5)CC4)cc13)-c1cc3c(c(=O)n1C2)COC(=O)[C@]3(O)CC [Irinotecan, reference compound] | – | 28 ± 1.5 µM | – | – | – | –
3 | O=c1[nH]cc(F)c(=O)[nH]1 [Compound 5-FU, 5-Fluorouracil, reference compound] | – | 51.1 ± 1.1 µM | – | – | – | –

Now from value to compound, other results behind:

Row | logP (Log P) | IC50 [1, 2] | SMILES | IC50 [1, 3] | cytotoxic activity against MiaPaCa-2, XYZ-I-73 versus XYZ-I-71 ([1]; MiaPaCa-2, FIG. 7) | efficacy against MiaPaCa-2 cancer line compared with 5-FU (IC50 data) ([1]; MiaPaCa-2) | number of migrated cells towards the wound (MiaPaCa-2 cells)
4 | 3.94 | 6.81 ± 2.1 µM | CCCCCCCCCCCC(=O)Nc1nc(=O)n(C2CCCO2)cc1F (centres unmarked) [XYZ-I-73, N-(5-fluoro-2-oxo-1-(tetrahydrofuran-2-yl)-1,2-dihydropyrimidin-4-yl)dodecanamide] | 6.81 ± 1.1 µM | significant higher cytotoxic activity | greater efficacy | significantly inhibited
5 | 2.27 | 13.8 ± 1.7 µM | CCCCCCCC(=O)Nc1nc(=O)n(C2CCCO2)cc1F (centres unmarked) [XYZ-I-71, N-(5-fluoro-2-oxo-1-(tetrahydrofuran-2-yl)-1,2-dihydropyrimidin-4-yl)octanamide] | 13.8 ± 1.1 µM | – | greater efficacy | significantly inhibited
